This note sets out measurements from the supplement of paper PMC11003180.

Experiment in all cases: drug sensitivity score (DSS) from 5-dose viability curve (DSS (area-based score, 0 = no response)); higher = more sensitive (stronger viability inhibition); extreme values may be limits of the assay
Assay [1] concerns MDCK wild-type + doxycycline. As to conditions: doxycycline: 10 ng/mL; 72 h. The gist of the method:
(§1)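 After 72 h at 37 °C on 384-well plates pre-spotted with 528 oncology drugs at five doses (1-10,000 nM), parental and doxycycline-inducible MDCK cells were assessed; both lines had been given 10 ng/mL doxycycline in the medium before seeding at 2000 cells/well. Viability was taken from CellTiter-Glo luminescence scaled per plate to vehicle and positive controls, and drug sensitivity scores were derived from dose-response fits in the Breeze pipeline.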

Assay [2] relates to MDCK p60AmotL2-inducible + doxycycline (p60AmotL2 expressing). As to conditions: doxycycline: 10 ng/mL; 72 h. The method, boiled down: as §1
The subject of assay [3] is MDCK wild-type - doxycycline. The settings on record: doxycycline: none; 72 h. The method, boiled down:
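For 72 h at 37 °C, parental MDCK cells (no doxycycline, 2000 cells/well) were incubated on 384-well plates pre-spotted with 528 oncology drugs at five doses from 1 to 10,000 nM. CellTiter-Glo luminescence served as the viability readout, scaled per plate between vehicle and positive controls. The Breeze pipeline then fitted dose-response curves to yield drug sensitivity scores.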

In the case of `O=C(Nc1ccc(OC(F)(F)Cl)cc1)c1cnc(N2CC[C@@H](O)C2)c(-c2cc[nH]n2)c1` [Asciminib], the drug sensitivity score in assay [1], in assay [2] and in assay [3] was 0 throughout.
Consider `CC(C)c1c(C(=O)Nc2ccccc2)c(-c2ccccc2)c(-c2ccc(F)cc2)n1CC[C@@H](O)C[C@@H](O)CC(=O)O` [Atorvastatin], for which the drug sensitivity score stood at 0 in assay [1], 0.4 in assay [2] and 0 in assay [3].
With `CC(=O)OC[C@H]1O[C@@H]([S-])[C@H](OC(C)=O)[C@@H](OC(C)=O)[C@@H]1OC(C)=O.CCP(CC)CC.[Au+]` [Auranofin], the drug sensitivity score in assay [1] was 4.2; in assay [2] it was 4.7; in assay [3], 4.2.
With `CNC(=O)c1ccccc1Sc1ccc2c(/C=C/c3ccccn3)n[nH]c2c1` [Axitinib], the values for the drug sensitivity score in assay [1], in assay [2] and in assay [3] were 0, 5.7 and 0, respectively.
On to `Nc1ncn([C@@H]2O[C@H](CO)[C@@H](O)[C@H]2O)c(=O)n1` [Azacitidine], for which the drug sensitivity score in assay [1] was 0.6; in assay [2], 0.7; in assay [3] it was 0.3.
For `Cc1cc(-c2nc(-c3ccc(OC(F)(F)F)cc3)no2)nn1Cc1ccnc(N2CCN(C3CC3)CC2)c1` [BAY 87-2243], the drug sensitivity score in assay [1], in assay [2] and in assay [3] was 0 each time.
Turning to `Nc1nc(Nc2ccc3c(c2)CC[C@@H](N2CCCC2)CC3)nn1-c1cc2c(nn1)-c1ccccc1CCC2` [BGB324], the drug sensitivity score in assay [1] amounted to 5; in assay [2] it was 5.8; in assay [3], 5.1.
On the same counts, the results for `O=C1CCc2c(Oc3ccc4c(c3)[C@@H]3[C@H](O4)[C@H]3c3nc4cc(C(F)(F)F)ccc4[nH]3)ccnc2N1` [BGB-283] are 5.4, 6.6 and 1.6.
For `CC[C@@H]1C(=O)N(C)c2cnc(Nc3ccc(C(=O)NC4CCN(C)CC4)cc3OC)nc2N1C1CCCC1` [BI 2536] the same measures were 15.6, 15.9 and 19.9.
As for `COc1c(C)cnc(Cn2cnc3c(Cl)nc(N)nc32)c1C` [BIIB021], the drug sensitivity score was 19.6 in assay [1], 20.6 in assay [2] and 17.4 in assay [3].
As to `CC1(C)C(C(=O)Nc2ccc(S(=O)(=O)c3ccc(NC(=O)C4C(C)(C)C4(C)C)cc3)cc2)C1(C)C` [BRD7116], the drug sensitivity score in assay [1], in assay [2] and in assay [3] was 0 throughout.
For the molecule `O=C(Nc1cccc(Nc2ncc(Br)c(NCCc3cnc[nH]3)n2)c1)N1CCCC1` [BX-912], the values for the drug sensitivity score in assay [1], in assay [2] and in assay [3] were 0.8, 4.1 and 0.1, respectively.
Take `Cc1ccc(NC(=O)c2ccc(CN3CC[C@H](N(C)C)C3)c(C(F)(F)F)c2)cc1Nc1nccc(-c2cncnc2)n1` [Bafetinib]: the drug sensitivity score in assay [1], in assay [2] and in assay [3] was 0 in each case.
Take `CCS(=O)(=O)N1CC(CC#N)(n2cc(-c3ncnc4[nH]ccc34)cn2)C1` [Baricitinib]: the drug sensitivity score in assay [1], in assay [2] and in assay [3] was 0 in each case.
For `O=C(/C=C/c1cccc(S(=O)(=O)Nc2ccccc2)c1)NO` [Belinostat], the drug sensitivity score in assay [1] was found to be 15.8; in assay [2], 19; in assay [3], 14.
As for `N#CC(c1ccnc(OCc2ccc(CN3CCOCC3)cc2)n1)c1nc2ccccc2s1` (stereo not drawn) [Bentamapimod], the results for the drug sensitivity score in assay [1], in assay [2] and in assay [3] were 1.5, 2.1 and 1.2, respectively.
For `C=C(c1ccc(C(=O)O)cc1)c1cc2c(cc1C)C(C)(C)CCC2(C)C` [Bexarotene] the same measures were 0, 0 and 0.2.
In the case of `CCNC(=O)CCC/C=C\C[C@@H]1[C@@H](/C=C/[C@@H](O)CCc2ccccc2)[C@H](O)C[C@@H]1O` [Bimatoprost], the drug sensitivity score in assay [1], in assay [2] and in assay [3] was 0 throughout.
For `Cn1cnc2c(F)c(Nc3ccc(Br)cc3F)c(C(=O)NOCCO)cc21` [Binimetinib], the drug sensitivity score in assay [1] was determined as 0; in assay [2] it was 5.3; in assay [3], 0.
With `Cc1sc2c(c1C)C(c1ccc(Cl)cc1)=N[C@@H](CC(=O)Nc1ccc(O)cc1)c1nnc(C)n1-2` [Birabresib], the drug sensitivity score is 10.7 in assay [1], 16.6 in assay [2] and 5.8 in assay [3].
As for `CC[C@H](NC(=O)[C@H](C)NC)C(=O)N1C[C@@H](O)C[C@H]1Cc1c(-c2[nH]c3cc(F)ccc3c2C[C@@H]2C[C@H](O)CN2C(=O)[C@H](CC)NC(=O)[C@H](C)NC)[nH]c2cc(F)ccc12` [Birinapant], the drug sensitivity score in assay [1], in assay [2] and in assay [3] was 0 each time.
In the case of `Cc1c(N)nc([C@H](CC(N)=O)NC[C@H](N)C(N)=O)nc1C(=O)N[C@H](C(=O)N[C@H](C)[C@@H](O)[C@H](C)C(=O)N[C@H](C(=O)NCCc1nc(-c2nc(C(=O)NCCC[S+](C)C)cs2)cs1)[C@@H](C)O)[C@@H](OC1OC(CO)C(O)C(O)C1OC1OC(CO)C(O)C(OC(N)=O)C1O)c1cnc[nH]1` (stereo partly drawn) [Bleomycin], the drug sensitivity score in assay [1] was determined as 0; in assay [2] it was 0.6; in assay [3], 0.
In the case of `CC(C)C[C@H](NC(=O)[C@H](Cc1ccccc1)NC(=O)c1cnccn1)B(O)O` [Bortezomib], the results for the drug sensitivity score in assay [1], in assay [2] and in assay [3] were 25.9, 25 and 26.7, respectively.
For `COc1cc(Nc2c(C#N)cnc3cc(OCCCN4CCN(C)CC4)c(OC)cc23)c(Cl)cc1Cl` [Bosutinib], the results for the drug sensitivity score in assay [1], in assay [2] and in assay [3] were 10.4, 14.1 and 7.5, respectively.
On to `COc1cc(N2CCC(N3CCN(C)CC3)CC2)ccc1Nc1ncc(Cl)c(Nc2ccccc2P(C)(C)=O)n1` [Brigatinib], for which the drug sensitivity score in assay [1] was found to be 2.6; in assay [2] it was 5.2; in assay [3], 4.1.
For `Cc1cc2c(F)c(Oc3ncnn4cc(OC[C@@H](C)O)c(C)c34)ccc2[nH]1` [Brivanib], the drug sensitivity score in assay [1], in assay [2] and in assay [3] was 0 in each case.
In the case of `CCC/C=C/C=C/C(=O)O[C@H]1/C(=C/C(=O)OC)C[C@H]2C[C@H]([C@@H](C)O)OC(=O)C[C@H](O)C[C@@H]3C[C@H](OC(C)=O)C(C)(C)[C@](O)(C[C@@H]4C/C(=C/C(=O)OC)C[C@H](/C=C/C(C)(C)[C@]1(O)O2)O4)O3` [Bryostatin 1], the drug sensitivity score in assay [1], in assay [2] and in assay [3] was 0 in each case.
On to `Nc1cc(C(F)(F)F)c(-c2cc(N3CCOCC3)nc(N3CCOCC3)n2)cn1` [Buparlisib], for which the results for the drug sensitivity score in assay [1], in assay [2] and in assay [3] were 7, 6.3 and 5.1, respectively.
Consider `Cc1nc2cccc(N)c2c(=O)n1C1CCC(=O)NC1=O` (stereo not drawn) [CC122], for which the drug sensitivity score in assay [1], in assay [2] and in assay [3] was 0 in each case.
On to `CCN1C(=O)CNc2ncc(-c3ccc(-c4nc[nH]n4)nc3C)nc21` [CC-115], for which the drug sensitivity score in assay [1] was 7.8; in assay [2], 9.4; in assay [3] it was 8.9.
`CO[C@H]1CC[C@H](N2C(=O)CNc3ncc(-c4ccc(C(C)(C)O)nc4)nc32)CC1` [CC-223]: the drug sensitivity score in assay [1] was 2.9; in assay [2] it was 5.2; in assay [3], 2.8.
Consider `COc1cc(C)[nH]c(=O)c1CNC(=O)c1c(C)n([C@H](C)C2CCOCC2)c2ccccc12` [CPI-360], for which the drug sensitivity score in assay [1] is 0.1; in assay [2] it was 1.3; in assay [3], 0.
Consider `Cc1noc2c1-c1ccccc1C(c1ccc(Cl)cc1)=N[C@H]2CC(N)=O` [CPI-0610], for which the drug sensitivity score was found to be 4.8 in assay [1], 10.9 in assay [2] and 3.1 in assay [3].
With `O=C(O)CCCCC(CCSCc1ccccc1)SCc1ccccc1` (stereo not drawn) [CPI-613], the drug sensitivity score in assay [1], in assay [2] and in assay [3] was 0 throughout.
In the case of `CN(C)c1cc2c(cc1Sc1nc3c(N)nccc3n1CCNCC(C)(C)C)OCO2` [CUDC-305], the drug sensitivity score in assay [1] was 17; in assay [2], 18; in assay [3] it was 17.7.
In the case of `COc1ccc(-c2nc(N3CCOCC3)c3sc(CN(C)c4ncc(C(=O)NO)cn4)cc3n2)cn1` [CUDC-907], the results for the drug sensitivity score in assay [1], in assay [2] and in assay [3] were 28.3, 30.3 and 27.2, respectively.
